Assay results taken from US20190365771A1, “APILIMOD COMPOSITIONS AND METHODS FOR USING SAME IN THE TREATMENT OF ALZHEIMER'S DISEASE” (AI Therapeutics, Inc., priority 2016, published 2019).

Columns and labels:
[1] = test system: Hela cells transiently transfected with C99 APP truncated mutant (C99); experiment: Ab 40 ELISA of supernatants of Hela cells transfected with C99 construct; type: cell-based, human; conditions: treated two days with 10000, 1000, 100, 1 nM, FIG. 2
Source text: (§1) The Amyloid precursor protein (APP) can be processed by proteases, first by beta secretase (BACE1) then followed by gamma secretase to generate peptide fragments including sizes of 40 and 42 amino acids named abeta (Ab), e.g. Ab 1-40 and Ab 1-42. Several familial Alzheimer disease-related mutations and truncated mutants in the APP gene have been described in the investigation of APP processing to Ab in vitro and in vivo. […] Briefly, two constructs were used to generate Ab:(1) APP Swedish/Indiana double mutant (APPSw-I) in the 695 amino acid APP construct combines the Swedish mutant APP K670N, M671L (Mullan M et al, A pathogenic mutation for probable Alzheimer's disease in the APP gene at the N-terminus of beta-amyloid. Nat Genet., 1992 August; 1(5):345-7) and the Indiana mutation APP V717F (Suzuki N et al, An increased percentage of long amyloid beta protein secreted by familial amyloid beta protein precursor (beta APP717) mutants. Science, 1994 May 27; 264(5163): 1336-40); and (2) C99 APP truncated mutant (C99) fragment encoding the last 99-aa of APP 695, this construct mimics the BACE1 cleaved APP at the major Asp+1 site of Aβ to generate C99. […]

[2] = test system: Hela cells transiently transfected with APP Swedish/Indiana double mutant (APPSw-I); experiment: Ab 40 ELISA of supernatants of Hela cells transfected with APPSw-I construct; type: cell-based, human; conditions: treated two days with 10000, 1000, 100, 1 nM, FIG. 1
Source text: as §1

Cc1cccc(/C=N/Nc2cc(N3CCOCC3)nc(OCCc3ccccn3)n2)c1 [apilimod]
Ab concentration in cell culture supernatant [1]: dose dependent decrease of Ab
Ab concentration in cell culture supernatant [2]: dose dependent decrease of Ab
